We go through eight compounds from paper PMC5298231, “The Malaria Parasite's Lactate Transporter PfFNT Is the Target of Antiplasmodial Compounds Identified in Whole Cell Phenotypic Screens” (PLoS Pathogens, 2017).

The assay deals with erythrocytes infected with 3D7 trophozoites. It is filed as cell-based, Plasmodium falciparum.

SMILES strings stand for the structures. Where two headings read alike, the source gives them in different places. Peptide text beside a SMILES is read from it.

Consider `N[C@@H](CO)C(=O)N[C@@H](Cc1ccccc1)C(=O)NCC(=O)N[C@@H](CC(=O)O)C(=O)O` [SFGD] (H-SFGD-OH), for which the “Ratio of metabolite abundance, Exp1_1hr” value (sheet Ratio, Exp1, 1hr) turned out to be 0.9984. Moreover, where the note is “sheet Ratio, Exp1, 3hr”, the “Ratio of metabolite abundance, Exp1_3hr” value is given as 0.657. For the same compound, where the note is “sheet Ratio, Exp1, 6hr”, the “Ratio of metabolite abundance, Exp1_6hr” value worked out at 0.8343. The “Ratio of metabolite abundance, Exp2_1hr” value (sheet Ratio, Exp2, 1hr) is 0.9574. In addition, the “Ratio of metabolite abundance, Exp2_3hr” value (sheet Ratio, Exp2, 3hr) is 0.8881. Besides, where the note is “sheet Ratio, Exp2, 6hr”, the “Ratio of metabolite abundance, Exp2_6hr” value is 0.8874. The “Ratio of metabolite abundance, Exp3_1hr” value (sheet Ratio, Exp3, 1hr) amounted to 0.972. Also, the “Ratio of metabolite abundance, Exp3_3hr” value (sheet Ratio, Exp3, 3hr) turned out to be 0.9269. In addition, the “Ratio of metabolite abundance, Exp3_6hr” value (sheet Ratio, Exp3, 6hr) came to 0.9926.

Regarding `O=C(COP(=O)(O)O)[C@@H](O)[C@H](O)[C@H](O)[C@H](O)COP(=O)(O)O` [Sedoheptoluse bisphosphate], for the setting “sheet Ratio, Exp1, 1hr”, the “Ratio of metabolite abundance, Exp1_1hr” value was 2.263. Further, where the note is “sheet Ratio, Exp1, 3hr”, the “Ratio of metabolite abundance, Exp1_3hr” value turned out to be 0.7031. Moreover, the “Ratio of metabolite abundance, Exp1_6hr” value (sheet Ratio, Exp1, 6hr) came out at 0.6514. Further, where the note is “sheet Ratio, Exp2, 1hr”, the “Ratio of metabolite abundance, Exp2_1hr” value is 1.522. Also, under “sheet Ratio, Exp2, 3hr”, the “Ratio of metabolite abundance, Exp2_3hr” value came to 1.277. Further, the “Ratio of metabolite abundance, Exp2_6hr” value (sheet Ratio, Exp2, 6hr) is on record as 0.7611. Besides, for the setting “sheet Ratio, Exp3, 1hr”, the “Ratio of metabolite abundance, Exp3_1hr” value is 1.031. For the same compound, where the note is “sheet Ratio, Exp3, 3hr”, the “Ratio of metabolite abundance, Exp3_3hr” value turned out to be 0.8186. In addition, the “Ratio of metabolite abundance, Exp3_6hr” value (sheet Ratio, Exp3, 6hr) was determined as 0.6336.

With `O=CCCC(=O)O` [Succinate semialdehyde], the “Ratio of metabolite abundance, Exp1_1hr” value (sheet Ratio, Exp1, 1hr) stood at 0.6229. Moreover, the “Ratio of metabolite abundance, Exp1_3hr” value (sheet Ratio, Exp1, 3hr) stood at 0.6245. Moreover, the “Ratio of metabolite abundance, Exp1_6hr” value (sheet Ratio, Exp1, 6hr) was 0.614. Moreover, for the setting “sheet Ratio, Exp2, 1hr”, the “Ratio of metabolite abundance, Exp2_1hr” value is listed as 0.9462. The “Ratio of metabolite abundance, Exp2_3hr” value (sheet Ratio, Exp2, 3hr) is recorded as 0.5836. For the same compound, the “Ratio of metabolite abundance, Exp2_6hr” value (sheet Ratio, Exp2, 6hr) amounted to 0.7757. The “Ratio of metabolite abundance, Exp3_1hr” value (sheet Ratio, Exp3, 1hr) amounted to 0.7696. In addition, the “Ratio of metabolite abundance, Exp3_3hr” value (sheet Ratio, Exp3, 3hr) is 0.6244. The “Ratio of metabolite abundance, Exp3_6hr” value (sheet Ratio, Exp3, 6hr) is 0.8444.

As for `O=C(O)CCC(=O)O` [Succinate], the “Log2 Exp1_1hr” value is 0.7494, the “Log2 Exp1_3hr” value was -0.1278, the “Log2 Exp1_6hr” value is -0.06195 and the “Log2 Exp2_1hr” value is 0.5818. Also, the “Log2 Exp2_3hr” value is recorded as -0.0254, the “Log2 Exp2_6hr” value was determined as 0.5995, the “Log2 Exp3_1hr” value is 0.1613 and the “Log2 Exp3_3hr” value is recorded as -0.5854. In addition, the “Log2 Exp3_6hr” value was found to be 0.007182; the “Ratio of metabolite abundance, Exp1_1hr” value came to 1.681; the “Ratio of metabolite abundance, Exp1_3hr” value is given as 0.9152; the “Ratio of metabolite abundance, Exp1_6hr” value is reported as 0.958. The “Ratio of metabolite abundance, Exp2_1hr” value came out at 1.497; the “Ratio of metabolite abundance, Exp2_3hr” value turned out to be 0.9825; the “Ratio of metabolite abundance, Exp2_6hr” value was determined as 1.515; the “Ratio of metabolite abundance, Exp3_1hr” value was 1.118. Moreover, the “Ratio of metabolite abundance, Exp3_3hr” value amounted to 0.6665 and the “Ratio of metabolite abundance, Exp3_6hr” value was determined as 1.005.

Regarding `CC(C)[C@H](NC(=O)[C@H](CC(N)=O)NC(=O)[C@@H](N)[C@@H](C)O)C(=O)N[C@@H](CCCCN)C(=O)O` [TNVK] (H-TNVK-OH), for the setting “sheet Ratio, Exp1, 1hr”, the “Ratio of metabolite abundance, Exp1_1hr” value is recorded as 0.4459. Further, under “sheet Ratio, Exp1, 3hr”, the “Ratio of metabolite abundance, Exp1_3hr” value is reported as 0.2171. The “Ratio of metabolite abundance, Exp1_6hr” value (sheet Ratio, Exp1, 6hr) is 0.7349. Besides, the “Ratio of metabolite abundance, Exp2_1hr” value (sheet Ratio, Exp2, 1hr) was determined as 0.5855. Moreover, the “Ratio of metabolite abundance, Exp2_3hr” value (sheet Ratio, Exp2, 3hr) came out at 0.3584. Further, for the setting “sheet Ratio, Exp2, 6hr”, the “Ratio of metabolite abundance, Exp2_6hr” value was 0.8812. Besides, the “Ratio of metabolite abundance, Exp3_1hr” value (sheet Ratio, Exp3, 1hr) is 0.5059. The “Ratio of metabolite abundance, Exp3_3hr” value (sheet Ratio, Exp3, 3hr) is 0.3409. Moreover, the “Ratio of metabolite abundance, Exp3_6hr” value (sheet Ratio, Exp3, 6hr) came out at 1.2.

For the compound `CC(=O)N[C@H]1[C@@H](OP(=O)(O)OP(=O)(O)OC[C@H]2O[C@@H](n3ccc(=O)[nH]c3=O)[C@H](O)[C@@H]2O)O[C@H](CO)[C@@H](O)[C@@H]1O` [UDP-N-acetyl-D-glucosamine], the “Ratio of metabolite abundance, Exp1_1hr” value (sheet Ratio, Exp1, 1hr) was 1.076. The “Ratio of metabolite abundance, Exp1_3hr” value (sheet Ratio, Exp1, 3hr) is recorded as 0.9078. Moreover, where the note is “sheet Ratio, Exp1, 6hr”, the “Ratio of metabolite abundance, Exp1_6hr” value is on record as 0.813. For the same compound, the “Ratio of metabolite abundance, Exp2_1hr” value (sheet Ratio, Exp2, 1hr) is on record as 0.9909. The “Ratio of metabolite abundance, Exp2_3hr” value (sheet Ratio, Exp2, 3hr) was 1.08. The “Ratio of metabolite abundance, Exp2_6hr” value (sheet Ratio, Exp2, 6hr) was found to be 0.8625. Moreover, for the setting “sheet Ratio, Exp3, 1hr”, the “Ratio of metabolite abundance, Exp3_1hr” value stood at 1.118. Under “sheet Ratio, Exp3, 3hr”, the “Ratio of metabolite abundance, Exp3_3hr” value is listed as 1.138. In addition, where the note is “sheet Ratio, Exp3, 6hr”, the “Ratio of metabolite abundance, Exp3_6hr” value is reported as 0.9727.

For the compound `O=c1ccn([C@@H]2O[C@H](COP(=O)(O)OP(=O)(O)O)[C@@H](O)[C@H]2O)c(=O)[nH]1` [UDP], under “sheet Ratio, Exp1, 1hr”, the “Ratio of metabolite abundance, Exp1_1hr” value turned out to be 0.7834. For the same compound, the “Ratio of metabolite abundance, Exp1_3hr” value (sheet Ratio, Exp1, 3hr) amounted to 0.4305. Also, the “Ratio of metabolite abundance, Exp1_6hr” value (sheet Ratio, Exp1, 6hr) was 0.5124. In addition, the “Ratio of metabolite abundance, Exp2_1hr” value (sheet Ratio, Exp2, 1hr) turned out to be 1.213. Further, under “sheet Ratio, Exp2, 3hr”, the “Ratio of metabolite abundance, Exp2_3hr” value was determined as 0.7051. Also, the “Ratio of metabolite abundance, Exp2_6hr” value (sheet Ratio, Exp2, 6hr) stood at 0.7343. For the same compound, the “Ratio of metabolite abundance, Exp3_1hr” value (sheet Ratio, Exp3, 1hr) turned out to be 0.7602. For the same compound, the “Ratio of metabolite abundance, Exp3_3hr” value (sheet Ratio, Exp3, 3hr) is reported as 0.7434. The “Ratio of metabolite abundance, Exp3_6hr” value (sheet Ratio, Exp3, 6hr) was 0.9366.

Turning to `O=c1ccn([C@@H]2O[C@H](COP(=O)(O)O)[C@@H](O)[C@H]2O)c(=O)[nH]1` [UMP], the “Ratio of metabolite abundance, Exp1_1hr” value (sheet Ratio, Exp1, 1hr) is 0.9634. Also, the “Ratio of metabolite abundance, Exp1_3hr” value (sheet Ratio, Exp1, 3hr) is reported as 0.9303. In addition, under “sheet Ratio, Exp1, 6hr”, the “Ratio of metabolite abundance, Exp1_6hr” value worked out at 0.812. Further, the “Ratio of metabolite abundance, Exp2_1hr” value (sheet Ratio, Exp2, 1hr) was 0.4945. Besides, under “sheet Ratio, Exp2, 3hr”, the “Ratio of metabolite abundance, Exp2_3hr” value was determined as 0.6514. The “Ratio of metabolite abundance, Exp2_6hr” value (sheet Ratio, Exp2, 6hr) is 1.0366. Also, for the setting “sheet Ratio, Exp3, 1hr”, the “Ratio of metabolite abundance, Exp3_1hr” value was 0.9925. Moreover, the “Ratio of metabolite abundance, Exp3_3hr” value (sheet Ratio, Exp3, 3hr) is on record as 0.9562. The “Ratio of metabolite abundance, Exp3_6hr” value (sheet Ratio, Exp3, 6hr) stood at 0.9948.
